Literature values in US20090312439A1, “USE OF ROLL COMPACTED PYROGENICALLY PRODUCED SILICON DIOXIDE IN PHARMACEUTICAL COMPOSITIONS” (priority 2006, published 2009).

saturation equilibrium value (pure active constituent in water, reached only after shaking over several days): 1.1 mg/100 ml | release of active constituent on contact with water (sorbate of 5.2 mg on 100 mg pyrogenic silicic acid (AEROSIL 200)): supersaturated solution is formed
Compound: C#C[C@]1(O)CC[C@H]2[C@@H]3CCc4cc(O)ccc4[C@H]3CC[C@@]21C [ethinyl oestradiol]
